Source: ChEMBL document CHEMBL1132847, “Substituted 1,6-naphthyridines as human cytomegalovirus inhibitors: conformational requirements” (Bioorg Med Chem Lett, 2000)
Values after ≈ are worked out from the molar mass of the structure shown.

System: Human betaherpesvirus 5
Test: Concentration required to inhibit human cytomegalovirus by 50 percent
Type: functional, organism-based

For `Cc1ccccc1CNC(=O)c1ccc2cnccc2n1`, which IC50 is on record?
Its IC50 is 1 µg/mL (≈ 3.61 µM).

For `CCOc1ccccc1CNC(=O)c1ccc2cnccc2n1`, which IC50 is on record?
The IC50 was 0.1 µg/mL (≈ 0.325 µM).

For `COc1ccccc1CN(C)C(=O)c1ccc2cnccc2n1`, which IC50 is on record?
Its IC50 is greater than 25 µg/mL.

`Cc1cncc2ccc(C(=O)NCc3ccccc3OC(C)C)nc12` was tested. Which IC50 did it give?
Its IC50 is 0.0004 µg/mL (≈ 0.00119 µM).

For `O=C(NC1CCCOc2ccccc21)c1ccc2cnccc2n1` (stereo not drawn), which IC50 is on record?
The IC50 was 0.5 µg/mL (≈ 1.57 µM).

Which IC50 does the source give for `O=C(NCc1ccccc1OC(F)(F)F)c1ccc2cnccc2n1` here?
The IC50 was 1 µg/mL (≈ 2.88 µM).

With `CC(C)Oc1ccccc1CNC(=O)c1ccc2cnccc2n1` as the compound, how does the IC50 read?
Its IC50 is 0.005 µg/mL (≈ 0.0156 µM).

How did the IC50 turn out when `O=C(NC1CCOc2ccccc21)c1ccc2cnccc2n1` (stereo not drawn) was run?
Its IC50 is 20 µg/mL (≈ 65.5 µM).
